Assay results from patent EP4628497A1, “STEROID-CATIONIC LIPID COMPOUND AND USE THEREOF” (Jenkem Technology Co., Ltd. (Liaoning), priority 2023, dated 2024).

Experiment: Physicochemical parameters of Luc-mRNA-LNP (particle size, PDI, zeta potential, encapsulation efficiency)
Details: lipid formulation of Table 1
Procedure: The lipid compound of the present disclosure, neutral lipid (phospholipid), and PEG lipid were dissolved in an ethanol solution according to a specific molar ratio (detailed formulation shown in Table 1). The mRNA was dissolved in a citric acid buffer (pH 4.0) to a final concentration of 135 ng/µL. The LNP mixture and the mRNA dilution were mixed at a volume ratio of 1:3, and mRNA-LNP complexes were prepared using a microfluidic nano-preparation system with a flow rate ratio of 1:3 between the LNP mixture and the mRNA dilution, that is, the LNP volume:the mRNA volume was 1:3. After dilution with a 10× phosphate buffer solution (pH 7.4), ultrafiltration concentration was performed, followed by about 500-fold dilution with solution replacement. An experimental sample was obtained after sterile filtration. Samples were taken and analyzed for average particle size, PDI, and Zeta potential. Table 1: Three-component LNP lipid formulation based on cholesterol cationic lipid compound
Example 13: Preparation, Characterization, and In Vitro Cell Transfection Activity Evaluation of Luc-mRNA-LNP Using luciferase gene Luc-mRNA and referring to the preparation method provided in Example 12 and the lipid formulation provided in Table 1, Luc-mRNA-LNP was constructed, whose encapsulation efficiency, average particle size, PDI, and zeta potential data are shown in Table 2. […]

With `CCCCCCCCCCCOC(=O)CCCCCN(CCO)CCCCCCCC(=O)OC(CCCCCCCC)CCCCCCCC` [SM-102] the “Encapsulation efficiency (%)” value was “below 15%”.
